Laboratory results: PMC3930709, “Selective Activation of hTRPV1 by N-Geranyl Cyclopropylcarboxamide, an Amiloride-Insensitive Salt Taste Enhancer” (PLoS ONE, 2014)

How the values were obtained:
hTRPA1 [1] = target: T1, hTRPA1 (Homo sapiens, UniProt O75762); test: Measurement of Ca2+ influx (Fluo-4 AM, FlexStation III) in hTRPA1-expressing cells; format: cell-based; conditions: hTRPA1-expressing Flp-In 293 cells, Hill fit
T1 construct: expressed in transfected cells
Protocol: (§1) Flp-In 293 cell lines stably expressing hTRPA1constructed as previously reported was a gift from the professor Takumi Misaka at University of Tokyo. The hTRPA1-expressing cells were cultured in DMEM containing 10% FBS and 0.02% hygromycin B (Invitrogen). Flp-In 293 cell lines were maintained in DMEM containing 10% FBS. All cells were incubated at 37°C in a humidified atmosphere of 5% CO2.
The ligand-induced changes on cytosolic Ca^2+ level were monitored by a FlexStation III microplate reader (Molecular Devices). Fluo-4 AM (5 µM, Molecular Probes, Eugene, OR, USA) in assay buffer was loaded to the cells in 96-well black-wall plates for 30 min at 27°C. After dye treatment, each chemical was added to each well at 17 s and changes on intracellular Ca^2+ level were monitored by relative fluorescence units (ΔRFU, Ex = 485 nm; Em = 516 nm) for 120 s. […] The responses from at least three wells receiving the same stimulus were averaged. Plots of amplitude versus concentration were fitted using the Hill equation.

[2] = system: non-hTRPA1-expressing Flp-In 293 cells; test: Ca2+ imaging of non-hTRPA1-expressing Flp-In 293 cells (control); format: cell-based, human; conditions: comparison with hTRPA1-expressing cells
Protocol: Flp-In 293 cell lines stably expressing hTRPA1constructed as previously reported was a gift from the professor […] at University of Tokyo. The hTRPA1-expressing cells were cultured in DMEM containing 10% FBS and 0.02% hygromycin B (Invitrogen). Flp-In 293 cell lines were maintained in DMEM containing 10% FBS. All cells were incubated at 37°C in a humidified atmosphere of 5% CO2. […] Mock-transfected HEK293T cells, hTRPV1-expressing HEK293T cells, non-hTRPA1-expressing Flp-In 293 cells, and hTRPA1-expressing Flp-In 293 cells grown in 96-well black-wall plates were rinsed with assay buffer (130 mM NaCl, 10 mM glucose, 5 mM KCl, 2 […]2, 1.2 mM MgCl2, and 10 mM HEPES, pH 7.4) and loaded with 5 μM Fura-2 AM (Invitrogen) for 30 min at 27°C. The cells were washed with assay buffer and treated with ligands. […] The fluorescence intensities of Fura-2 excited at 340 and 380 nm were simultaneously measured at 510 nm using a computer-controlled filter changer (Lambda DG4; Sutter, San Rafael, CA, USA), an Andor Luca CCD camera (Andor Technology, Belfast, UK), and an inverted fluorescence microscope (IX-71; Olympus, Tokyo, Japan). Intracellular calcium images were recorded every 3-s for 60-s and analyzed using MetaFluor software (Molecular Devices, Sunnyvale, CA, USA).

hTRPV1 = target: T2, hTRPV1 (Homo sapiens, UniProt Q8NER1); test: Whole-cell patch clamp recording, hTRPV1-expressing HEK293T cells; format: cell-based; conditions: capsaicin 100 nM; NGCC 10^3 µM; holding -80 mV
T2 construct: expressed in transfected cells; host or cells: HEK293T
T2 sequence (Q8NER1 whole entry): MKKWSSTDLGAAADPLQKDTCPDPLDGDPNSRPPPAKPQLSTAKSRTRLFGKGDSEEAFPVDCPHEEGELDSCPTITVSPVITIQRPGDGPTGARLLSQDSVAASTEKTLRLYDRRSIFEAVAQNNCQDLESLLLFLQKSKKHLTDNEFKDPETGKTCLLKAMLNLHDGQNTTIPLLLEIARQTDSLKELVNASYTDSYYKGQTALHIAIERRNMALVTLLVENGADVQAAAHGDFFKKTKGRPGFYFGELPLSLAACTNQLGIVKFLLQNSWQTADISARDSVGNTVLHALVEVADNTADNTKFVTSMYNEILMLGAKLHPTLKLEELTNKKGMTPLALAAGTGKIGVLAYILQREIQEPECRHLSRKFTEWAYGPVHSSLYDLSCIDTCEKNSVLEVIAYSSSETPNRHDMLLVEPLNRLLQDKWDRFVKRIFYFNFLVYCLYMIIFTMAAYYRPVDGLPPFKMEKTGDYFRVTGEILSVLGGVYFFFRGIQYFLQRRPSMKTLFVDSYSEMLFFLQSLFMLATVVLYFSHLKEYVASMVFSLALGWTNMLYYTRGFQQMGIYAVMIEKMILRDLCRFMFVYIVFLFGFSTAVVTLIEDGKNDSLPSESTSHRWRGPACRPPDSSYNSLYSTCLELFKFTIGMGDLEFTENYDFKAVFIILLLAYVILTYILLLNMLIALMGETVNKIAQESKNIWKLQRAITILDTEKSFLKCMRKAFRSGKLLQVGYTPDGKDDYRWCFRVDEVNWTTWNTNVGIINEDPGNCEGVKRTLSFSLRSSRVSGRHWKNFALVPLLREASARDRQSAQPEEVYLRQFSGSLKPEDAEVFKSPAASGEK
Protocol: (§2) Mouse ASIC1a (mASIC1a) was a kind gift from John A. Wemmie (University of Iowa, IA, USA). For electrophysiological experiments, HEK293T cells were cultured in DMEM supplemented with 10% FBS and 0.2% penicillin/streptomycin and transiently transfected using Lipofectamine 2000 (Invitrogen) with various cDNAs. For TRPV1 channel expression, cells were transfected with hTRPV1, for ASIC1a homomeric channel expression, cells were transfected with mASIC1a. When needed, 0.1–0.2 µg of cDNA encoding tetrameric red fluorescence protein (DsRed) was co-transfected with the cDNA as a marker for successfully transfected cells. For non-transfected cells, cells were transfected with 0.1–0.2 µg of cDNA encoding DsRed alone. The next day, cells were plated onto poly-L-lysine-coated coverslip chips, and fluorescent cells were studied within 1–2 days.
(§3) The whole-cell configuration was used to voltage-clamp at room temperature (22–25°C). Electrodes pulled from glass micropipette capillaries (Sutter Instrument) had resistances of 2–2.5 MΩ, and series resistance errors were compensated >60%. Fast and slow capacitances were compensated before the application of test-pulse. Recordings were performed using aHEKAEPC-10 amplifier with pulse software (HEKA Elektronik). The pipette solution contained: 140 mM KCl, 5 mM MgCl2, 10 mM HEPES, 0.1 mM 1,2-bis(2-aminophenoxy) ethane N,N,N’,N’-tetraacetic acid(BAPTA), 3 mM Na2ATP, and 0.1 mM Na3GTP, adjusted to pH 7.4 with KOH. The external Ringer’s solution used for recording TRPV1 and TRPA1 currents contained: 150 mM NaCl, 5 mM KCl, 1 mM MgCl2, 2 mM EGTA, 10 mM Glucose, and 10 mM HEPES, adjusted to pH 7.4 with NaOH. TRPV1 and TRPA1 currents were recorded by holding the cell at −80 mV. The external Ringer’s solution used for recording ASIC current contained: 160 mM NaCl, 5 mM KCl, 1 mM MgCl2, 2 mM CaCl2, and 10 mM HEPES, adjusted to pH 7.4 with tetramethylammonium hydroxide. For acidic solution of pH 6.0, HEPES was replaced with MES. ASIC currents were recorded by holding the cell at −70 mV. Reagents were obtained as follows: BAPTA, Na2ATP, Na3GTP, EGTA, and tetramethylammonium hydroxide (Sigma), HEPES (Calbiochem), MES (Alfa Aesar), and other chemicals (Merck).

hTRPA1 [3] = target: T1, hTRPA1; test: Whole-cell patch clamp recording, cells stably expressing hTRPA1; format: cell-based; conditions: NGCC 10^3 µM
Protocol: as §1, §3

mASIC1a = target: T3, mASIC1a (Mus musculus, UniProt Q6NXK8); test: Whole-cell patch clamp recording, mASIC1a-expressing HEK293T cells; format: cell-based; conditions: NGCC 1 mM; holding -70 mV; n = 5
T3 construct: expressed in transfected cells; host or cells: HEK293T (cDNA gift from John A. Wemmie, University of Iowa)
T3 sequence (Q6NXK8 1-526): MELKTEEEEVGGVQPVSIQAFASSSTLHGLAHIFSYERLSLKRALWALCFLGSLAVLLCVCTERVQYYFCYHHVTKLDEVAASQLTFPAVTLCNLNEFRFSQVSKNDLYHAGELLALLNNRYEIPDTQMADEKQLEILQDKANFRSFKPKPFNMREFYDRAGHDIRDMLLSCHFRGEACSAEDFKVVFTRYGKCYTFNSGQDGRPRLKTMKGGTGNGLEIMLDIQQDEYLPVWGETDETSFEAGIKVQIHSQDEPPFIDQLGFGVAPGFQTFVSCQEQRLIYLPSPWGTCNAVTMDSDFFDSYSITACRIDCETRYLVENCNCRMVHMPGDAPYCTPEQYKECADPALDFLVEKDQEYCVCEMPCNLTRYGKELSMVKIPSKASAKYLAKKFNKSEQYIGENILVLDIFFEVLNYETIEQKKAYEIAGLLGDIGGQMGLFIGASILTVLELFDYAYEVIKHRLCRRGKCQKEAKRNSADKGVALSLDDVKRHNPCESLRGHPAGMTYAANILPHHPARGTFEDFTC
Protocol: as §2
The whole-cell configuration was used to voltage-clamp at room temperature (22–25°C). Electrodes pulled from glass micropipette capillaries (Sutter Instrument) had resistances of 2–2.5 MΩ, and series resistance errors were compensated >60%. Fast and slow capacitances were compensated before the application of test-pulse. Recordings were performed using aHEKAEPC-10 amplifier with pulse software (HEKA Elektronik). […] TRPV1 and TRPA1 currents were recorded by holding the cell at −80 mV. […] ASIC currents were recorded by holding the cell at −70 mV. […]

T1 sequence (O75762 whole entry): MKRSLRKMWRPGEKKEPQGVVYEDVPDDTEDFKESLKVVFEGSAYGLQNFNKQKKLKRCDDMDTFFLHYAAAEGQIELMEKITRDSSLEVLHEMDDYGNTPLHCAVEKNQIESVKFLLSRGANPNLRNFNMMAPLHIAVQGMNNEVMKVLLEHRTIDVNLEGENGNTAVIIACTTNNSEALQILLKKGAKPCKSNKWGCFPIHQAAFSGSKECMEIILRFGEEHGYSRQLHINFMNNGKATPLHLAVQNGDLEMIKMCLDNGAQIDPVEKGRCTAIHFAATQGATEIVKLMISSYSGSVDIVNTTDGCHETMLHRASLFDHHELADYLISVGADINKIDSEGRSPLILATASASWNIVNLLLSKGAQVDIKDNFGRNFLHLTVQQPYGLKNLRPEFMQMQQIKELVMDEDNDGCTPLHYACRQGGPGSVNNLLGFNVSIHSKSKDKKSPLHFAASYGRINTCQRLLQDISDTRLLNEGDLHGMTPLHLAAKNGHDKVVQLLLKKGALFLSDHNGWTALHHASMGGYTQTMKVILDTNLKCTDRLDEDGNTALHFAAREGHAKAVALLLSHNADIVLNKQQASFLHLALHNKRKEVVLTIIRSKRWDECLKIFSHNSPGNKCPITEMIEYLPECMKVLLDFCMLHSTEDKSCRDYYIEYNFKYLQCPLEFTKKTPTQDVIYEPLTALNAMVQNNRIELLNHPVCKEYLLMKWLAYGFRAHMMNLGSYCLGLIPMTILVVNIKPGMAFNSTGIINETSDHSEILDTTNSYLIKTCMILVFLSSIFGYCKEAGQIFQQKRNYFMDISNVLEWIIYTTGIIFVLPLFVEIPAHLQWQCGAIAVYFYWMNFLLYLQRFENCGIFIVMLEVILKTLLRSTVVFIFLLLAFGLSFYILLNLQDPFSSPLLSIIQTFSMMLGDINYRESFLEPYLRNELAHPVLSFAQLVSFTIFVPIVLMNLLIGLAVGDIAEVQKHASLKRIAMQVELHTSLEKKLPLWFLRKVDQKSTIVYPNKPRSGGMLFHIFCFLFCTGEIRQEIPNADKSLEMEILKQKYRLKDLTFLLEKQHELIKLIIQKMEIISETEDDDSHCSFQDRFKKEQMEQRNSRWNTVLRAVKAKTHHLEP

For `CC(C)=CCC/C(C)=C/CNC(=O)C1CC1` [NGCC, N-geranylcyclopropylcarboxamide], the EC50 (hTRPA1 [1]) was 83.7 µM, the “NGCC activity in non-hTRPA1-expressing Flp-In 293 cells” value [2] was “reacts specifically with hTRPA1” and the “inward current in cells expressing hTRPV1” value (hTRPV1) was “triggered an inward current”. The “inward current in hTRPA1-expressing cells” value (hTRPA1 [3]; AITC 100 µM, holding -80 mV) was “induced an inward current”, the “amplitude of current compared with AITC (100 µM)” value (hTRPA1 [3]; same cell) was “bigger than that of AITC” and the “activation of ASIC1a homomeric channels” value (mASIC1a) was “not sensitive”.
